Measurements as given in article PMC9295122, “Sialic Acid Derivatives Inhibit SiaT Transporters and Delay Bacterial Growth” (ACS Chemical Biology, 2022).

Tested on: P. mirabilis strain HI4320
Test: Bacterial growth assay in MM with Neu5Ac, P. mirabilis
Format: cell-based, Proteus mirabilis
Settings: P. mirabilis HI4320, MM + Neu5Ac 3.2 mM, compound 0.5 mM
Method: To investigate the efficacy of compounds 3e and 3f in inhibiting the uptake of Neu5Ac, bacterial growth assays were performed on a uropathogenic P. mirabilis strain HI4320 and a clinical HA-MRSA isolate S. aureus strain COL. The goal was to verify that compounds 3e and 3f alter bacterial growth when grown on Neu5Ac as an additional carbon source. Growth alteration would indicate Neu5Ac uptake impairment, thus validating our approach.
We first addressed whether these bacteria were able to catabolize the inhibitors and potentially use them as a carbon source for growth. Each strain was grown in carbon-limited defined minimal media (MM), without any carbon source other than sodium citrate for P. mirabilis and casamino acids for S. aureus, and supplemented with 3e and 3f. […] With these promising results, bacterial growth assays were performed in MM supplemented with Neu5Ac at a concentration of 3.2 mM and with 0.5 mM of compounds 3e and 3f (Figure 6a,b). The lag phase duration was determined as the time for the initial population density to increase twofold (see the horizontal dashed lines in Figure 6a,b). […] In the case of P. mirabilis, compound 3e indicated a delay in growth (3 h, P = 0.06), while no effect was recorded for compound 3f. […]

| SMILES | delay in growth (lag phase) |
| --- | --- |
| CC(=O)NC1C(OCc2cc(F)cc(F)c2)CC(O)(C(=O)O)OC1C(O)C(O)CO (centres unmarked) [Compound 3e] | 3 h |
| CC(=O)NC1C(OCc2cc(Br)cc(Br)c2)CC(O)(C(=O)O)OC1C(O)C(O)CO (centres unmarked) [Compound 3f] | no effect |
